{
  "source": "patent US10274483B2",
  "about": "“Fluorescence method for sensing chlorinated disaccharides” (THE REGENTS OF THE UNIVERSITY OF CALIFORNIA, priority 2014, dated 2019)",
  "type_in_all_cases": "binding",
  "key": {"[1]": {"assay": "oBBV-HPTS two component fluorescence assay, sucrose", "protocol": "(§1) Urine has been analyzed for the permeability markers sucrose (stomach), lactulose and mannitol (small intestine) and sucralose (colon). The viologen oBBV was used with the fluorophore HPTS (Exc. 420 or 485 nm, Em 535 nm). Fluorescence was measured with a benchtop plate reader. HPTS is normally read at 420/535 nm, but performs well at 485/535 nm, matching FITC filter sets normally found in clinical labs. […] Lower limit of quantification (LLOQ) and dynamic range are suitable for typical urine samples.\n(§2) Developing a degradation pathway of sucralose into a saccharide that consists of the hydroxyl groups is needed for boronic acid recognition, which allows for the molecular recognition of sucralose. Sucralose contains halogenated carbons, which are easily modified via a hydroxyl anion or radical to de-chlorinate sucralose to form a detectable saccharide. Based on literature precedence, sucralose is modified through advanced oxidation photolysis to generate a fructose sugar alcohol derivative of sucrose (Ref 38). […] This has been accomplished by generating hydroxyl anion and radicals via the Fenton chemical reaction (Ref 39) in the presence of sucralose, and upon reaction completion, the modified sucralose solution was tested against the oBBV-HPTS system. Using the disclosed two component system, it is confirmed that sucralose is modified."}, "[2]": {"assay": "oBBV-HPTS two component fluorescence assay, lactulose", "excerpt": "(§3) Boronic acids form covalent bonds with the cis-1, 2-hydroxyl groups that are commonly found in saccharides. Based on this property, a two-component sensing system is developed, comprising a fluorescent dye that serves as the indicator unit and a boronic acid-appended viologen that serves a dual function as fluorescence quencher and saccharide receptor. Dye and viologen form a non-fluorescent ground state complex. Binding to a diol weakens the complex. Subsequent dissociation from the fluorescent dye results in an increase in fluorescence dependent on diol concentration.\nas §1"}, "[3]": {"assay": "oBBV-HPTS two component fluorescence assay, Fenton-modified sucralose", "conditions": "sucralose after Fenton reaction, 1 hr; sodium phosphate and HEPES buffer, 0.01% Triton-X100, pH 7.4 (FIG. 4)", "protocol": "FIG. 4 is a graph showing the results of a proof of concept experiment to measure modified sucralose after 1 hr of reaction time. This study was performed with ortho bis boronic acid viologen (oBBV) in sodium phosphate and HEPES buffer 0.1M containing 0.01% Triton-X100, pH 7.4. The fluorescence intensity is the normalized intensity where F=fluorescence intensity after saccharide addition and Fo=fluorescence intensity of the quenched reporter dye.\nDeveloping a degradation pathway of sucralose into a saccharide that consists of the hydroxyl groups is needed for boronic acid recognition, which allows for the molecular recognition of sucralose. […]\nThis has been accomplished by generating hydroxyl anion and radicals via the Fenton chemical reaction (Ref 39) in the presence of sucralose, and upon reaction completion, the modified sucralose solution was tested against the oBBV-HPTS system. Using our two component system, we have confirmed that sucralose can be modified and measured by adding increasing amounts of this modified saccharide, a significant fluorescence signal was obtained.\nA solution of sucralose (20 mM) in the presence of ferrous iron (II) sulfate and hydrogen peroxide was allowed to stir for 1 hour and dilutions were made to determine if a fluorescence signal can be obtained. […]"}, "[4]": {"assay": "oBBV-HPTS two component fluorescence assay, sucralose", "protocol": "as §1, §2"}, "[5]": {"assay": "oBBV-HPTS two component fluorescence assay, mannitol", "excerpt": "as §3, §1"}, "[6]": {"conditions": "fluorophore HPTS, urine, Exc. 420 or 485 nm, Em 535 nm (FIG. 3)"}},
  "data": [
    {"smiles": "OB(O)c1ccccc1C[n+]1ccc(-c2cc[n+](Cc3ccccc3B(O)O)cc2)cc1.[Br-].[Br-]", "note": "[oBBV, 4,4′-N,N′-bis-(benzyl-2-boronic acid)-dipyridinium dibromide]", "values": [
      {"measurement": "fluorescence signal with sucrose", "setting": "[1]; tested in parallel with modified sucralose (FIG. 4)", "value": "no obtainable signal"},
      {"measurement": "de-quenching of HPTS fluorescence in the presence of sucrose", "setting": "[1]; urine (FIG. 3)", "value": "not"},
      {"measurement": "sensitivity to lactulose", "setting": "[2]; [6]", "value": "greatest preferential sensitivity"},
      {"measurement": "de-quenching of HPTS fluorescence in the presence of lactulose", "setting": "[2]; urine (FIG. 3)", "value": "selectively de-quenched"},
      {"measurement": "fluorescence signal on adding increasing amounts of modified sucralose", "setting": "[3]", "value": "increase in fluorescence signal"},
      {"measurement": "fluorescence signal with sucralose", "setting": "[4]; unmodified, tested in parallel with modified sucralose (FIG. 4)", "value": "no obtainable signal"},
      {"measurement": "de-quenching of HPTS fluorescence in the presence of sucralose", "setting": "[4]; urine (FIG. 3)", "value": "not"},
      {"measurement": "sensitivity to mannitol", "setting": "[5]; [6]", "value": "good sensitivity"},
      {"measurement": "de-quenching of HPTS fluorescence in the presence of mannitol", "setting": "[5]; urine (FIG. 3)", "value": "selectively de-quenched"}
    ]}
  ]
}
